Experimental data reported in patent US9822099B2, “Triazole derivatives” (priority 2013, dated 2017).
Like-named read-outs stand apart in the source and are kept apart here. Marks after values point to notes of the source that are not given here.

Experiments:
[1] = system: Septoria tritici; assay: Example D: in vivo preventive test on Septoria tritici (leaf spot on wheat); settings: wheat plants, preventive spray, evaluated 24 days after inoculation
Experimental: (§1) The young plants of wheat are treated by spraying the active ingredient prepared as described above. Control plants are treated only with an aqueous solution of acetone/Dimethyl sulfoxide/Tween®. After 24 hours, the plants are contaminated by spraying the leaves with an aqueous suspension of Septoria tritici spores.

[2] = system: Blumeria graminis f. sp. hordei; assay: Example G: Blumeria test (barley)/preventive; type: in vivo; settings: 500 ppm of active ingredient, preventive, evaluated 7 days after inoculation
How it was run: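 Active compound formulated in N,N-dimethylacetamide with alkylaryl polyglycol ether emulsifier, diluted in water, and sprayed onto young barley plants at the stated application rate. Once the coating dried, plants were dusted with Blumeria graminis f. sp. hordei spores as a preventive test.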

[3] = system: Leptosphaeria nodorum; assay: Example K: Leptosphaeria nodorum test (wheat)/preventive; type: in vivo; settings: 500 ppm of active ingredient, preventive, evaluated 8 days after inoculation
How it was run: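 Young wheat plants sprayed preventively with compound in N,N-dimethylacetamide/alkylaryl polyglycol ether emulsifier diluted with water at the stated application rate. Once the coating dried, plants were inoculated with a Leptosphaeria nodorum spore suspension.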

[4] = system: Uromyces appendiculatus; assay: Example F: in vivo preventive test on Uromyces appendiculatus (bean rust); settings: bean plants, preventive spray, evaluated 11 days after inoculation
Experimental: as §1, with “bean” for “wheat”, “Uromyces appendiculatus” for “Septoria tritici”

[5] = system: Puccinia recondita; assay: Example B: in vivo preventive test on Puccinia recondita (brown rust on wheat); settings: wheat plants, preventive spray, evaluated 11 days after inoculation
Experimental: as §1, with “Puccinia recondita” for “Septoria tritici”

[6] = system: Fusarium culmorum; assay: Example H: Fusarium culmorum-test (wheat)/curative; type: in vivo; settings: 500 ppm of active ingredient, curative, evaluated 5 days after inoculation
Experimental: Solvent: 49 parts by weight of N,N-dimethylacetamide
Emulsifier: 1 part by weight of alkylaryl polyglycol ether
To produce a suitable preparation of active compound, 1 part by weight of active compound or active compound combination is mixed with the stated amounts of solvent and emulsifier, and the concentrate is diluted with water to the desired concentration.
To test for curative activity, young plants are slightly injured by using a sandblast and afterwards they are sprayed with a conidia suspension of Fusarium culmorum and placed for 24 hours in a greenhouse under a translucent incubation cabinet at a temperature of approximately 22° C. and a relative atmospheric humidity of approximately 100% and are subsequently sprayed with the preparation of active compound at the stated rate of application.
After the spray coating has been dried, the plants remain in the greenhouse under translucent incubation cloches at a temperature of approximately 22° C. and a relative atmospheric humidity of approximately 100%.
The test is evaluated 5 days after the inoculation. 0% means an efficacy which corresponds to that of the untreated control, while an efficacy of 100% means that no disease is observed.

[7] = system: Podosphaera leucotricha; assay: Example M: Podosphaera test (apples)/preventive; type: in vivo; settings: 100 ppm of active ingredient, preventive, evaluated 10 days after inoculation
Experimental: (§2) Solvent: 24.5 parts by weight of acetone • 24.5 parts by weight of dimethylacetamide Emulsifier: 1 part by weight of alkylaryl polyglycol ether To produce a suitable preparation of active compound, 1 part by weight of active compound is mixed with the stated amounts of solvent and emulsifier, and the concentrate is diluted with water to the desired concentration. To test for preventive activity, young plants are sprayed with the preparation of active compound at the stated rate of application. After the spray coating has dried on, the plants are inoculated with an aqueous spore suspension of the causal agent of apple mildew (Podosphaera leucotricha).

[8] = system: Fusarium graminearum; type: in vivo; settings: 500 ppm of active ingredient; barley, preventive; evaluated 5 days after inoculation
[9] = system: Sphaerotheca fuliginea; assay: Example E: in vivo preventive test on Sphaerotheca fuliginea (powdery mildew on cucurbits); settings: gherkin plants, preventive spray, evaluated 15 days after inoculation
Experimental: as §1, with “gherkin” for “wheat”, “Sphaerotheca fuliginea” for “Septoria tritici”

[10] = system: Pyricularia oryzae; type: in vivo; settings: 500 ppm of active ingredient; rice, preventive; evaluated 8 days after inoculation
[11] = system: Botrytis cinerea; assay: Example A: in vivo preventive test on Botrytis cinerea (grey mould); settings: gherkin plants, preventive spray, evaluated 4 to 5 days after inoculation
Experimental: as §1, with “gherkin” for “wheat”, “Botrytis cinerea” for “Septoria tritici”

[12] = system: Venturia inaequalis; assay: Example O: Venturia test (apples)/preventive; type: in vivo; settings: 100 ppm of active ingredient, preventive, evaluated 10 days after inoculation
Experimental: as §2, with “application.” for “application. After the spray coating has dried on, the plants are inoculated with an aqueous spore suspension of the causal agent of apple mildew (Podosphaera leucotricha).”

[13] = system: Fusarium nivale (var. majus); assay: Example J: Fusarium nivale (var. majus)-test (wheat)/preventive; type: in vivo; settings: 500 ppm of active ingredient, preventive, evaluated 5 days after inoculation
How it was run: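 Young wheat plants sprayed preventively with active compound (DMA/emulsifier concentrate diluted in water) at the stated rate, then sandblast-wounded and inoculated with conidia. Held in greenhouse at ~10 °C, ~100% RH. Efficacy scored 5 days post-inoculation: 0% = untreated control, 100% = no disease.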

[14] = system: Phakopsora pachyrhizi; assay: Example L: Phakopsora test (soybeans)/preventive; type: in vivo; settings: 100 ppm of active ingredient, preventive, evaluated 7 days after inoculation
[15] = system: Pyrenophora teres; assay: Example C: in vivo preventive test on Pyrenophora teres (net blotch on barley); settings: barley plants, preventive spray, evaluated 14 days after inoculation
Experimental: as §1, with “barley” for “wheat”, “Pyrenophora teres” for “Septoria tritici”

In the case of `OC(Cc1ccncc1Cl)(Cn1cncn1)C1(Cl)CC1` (stereo not drawn) [Example I-5, 2-(1-chlorocyclopropyl)-1-(3-chloropyridin-4-yl)-3-(1H-1,2,4-triazol-1-yl)propan-2-ol], the Eff. % ([1]; 500 ppm of active ingredient) is reported as 100%, the Eff. % [2] is reported as 100% and the Eff. % [3] is reported as 90%. The Eff. % ([4]; 500 ppm of active ingredient) was 98%, the Eff. % ([5]; 500 ppm of active ingredient) was 100% and the Eff. % [6] was 100%. The Eff. % [7] was 100%, the Eff. % [8] was 100% and the Eff. % ([9]; 500 ppm of active ingredient) was 100%. It also gave an Eff. % [10] of 75%, an Eff. % ([11]; 500 ppm of active ingredient) of 100% and an Eff. % [12] of 100%. The Eff. % [13] was 100% and the Eff. % [14] was 100%.
Work on `OC(Cc1ccncc1F)(Cn1cncn1)C1(Cl)CC1` (stereo not drawn) [Example I-18] yielded an Eff. % ([1]; 100 ppm of active ingredient) of 98%, an Eff. % [2] of 100% and an Eff. % [3] of 100%. The Eff. % ([4]; 100 ppm of active ingredient) was 97%, the Eff. % ([5]; 100 ppm of active ingredient) was 94% and the Eff. % [6] was 100%. The Eff. % [7] was 97%, the Eff. % [8] was 100% and the Eff. % ([9]; 100 ppm of active ingredient) was 100%. The Eff. % ([15]; 100 ppm of active ingredient) was 83%, the Eff. % ([11]; 100 ppm of active ingredient) was 100% and the Eff. % [12] was 100%. The Eff. % [13] was 100%, the Eff. % [14] was 95% and the LogP (pH 2.7) was 1.29^[a].
Work on `OC(Cc1ccncc1Cl)(Cn1cncn1)C1(F)CC1` (stereo not drawn) [Example I-7] yielded an Eff. % ([1]; 100 ppm of active ingredient) of 98%, an Eff. % [2] of 100% and an Eff. % [3] of 100%. It also gave an Eff. % ([4]; 100 ppm of active ingredient) of 100%, an Eff. % ([5]; 100 ppm of active ingredient) of 94% and an Eff. % [6] of 100%. The Eff. % [8] was 100%, the Eff. % ([9]; 100 ppm of active ingredient) was 100% and the Eff. % ([15]; 100 ppm of active ingredient) was 92%. The Eff. % [10] was 100%, the Eff. % ([11]; 100 ppm of active ingredient) was 100% and the Eff. % [12] was 98%. For the same molecule, the Eff. % [13] was 100%, the Eff. % [14] was 94% and the LogP (method [a]: LC-MS at pH 2.7, 0.1% formic acid in water / acetonitrile gradient) was 1.29^[a].
`OC(Cc1cccnc1F)(Cn1cncn1)C1(Cl)CC1` (stereo not drawn) [Example I-51] showed an Eff. % ([1]; 500 ppm of active ingredient) of 100%, an Eff. % [2] of 100% and an Eff. % [3] of 100%. It also gave an Eff. % ([4]; 500 ppm of active ingredient) of 86%, an Eff. % ([5]; 500 ppm of active ingredient) of 98% and an Eff. % [6] of 100%. The Eff. % [8] was 100%, the Eff. % ([9]; 500 ppm of active ingredient) was 100% and the Eff. % ([15]; 500 ppm of active ingredient) was 100%. It also gave an Eff. % [10] of 80%, an Eff. % ([11]; 500 ppm of active ingredient) of 100% and an Eff. % [12] of 94%. The Eff. % [13] was 100%, the Eff. % [14] was 100% and the LogP (pH 2.7) was 1.64^[a].
For `OC(Cc1cccnc1Cl)(Cn1cncn1)C1(Cl)CC1` (stereo not drawn) [Example I-3], the Eff. % ([1]; 500 ppm of active ingredient) was 100%, the Eff. % [2] was 100% and the Eff. % [3] was 100%. The Eff. % ([4]; 500 ppm of active ingredient) was 100%, the Eff. % ([5]; 500 ppm of active ingredient) was 98% and the Eff. % [6] was 100%. The Eff. % [7] was 100%, the Eff. % [8] was 100% and the Eff. % ([9]; 100 ppm of active ingredient) was 100%. It also gave an Eff. % ([15]; 500 ppm of active ingredient) of 100%, an Eff. % [10] of 100% and an Eff. % ([11]; 500 ppm of active ingredient) of 100%. The Eff. % [12] was 98%, the Eff. % [13] was 100% and the Eff. % [14] was 100%. For the same molecule, the LogP (pH 2.7) was 1.78^[a].
